Test results taken from ChEMBL document CHEMBL1201862, “PubChem BioAssay data set” (2004).
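Growth conditions: 96-well plates. Treatment: test compound, 48 hours, 5 concentrations. Analysis: linear interpolation between bracketing concentrations; unreached endpoints set to highest concentration. GI50 marks 50% less growth.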 Calls of active or inactive are those of the source. No stated cut-off is given here; in the data, active = GI50 up to about 1.1 µM and inactive = higher.

Experiments:
Test in all cases: NCI anticancer screen, dose series, 48 h
HCT-116 = tested on: HCT-116
A549 = tested on: A549
UO-31 = tested on: UO-31
SN12C = tested on: SN12C
OVCAR-8 = tested on: OVCAR-8
SNB-19 = tested on: SNB-19
SW-620 = tested on: SW-620
Malme-3M = tested on: Malme-3M
XF498 = tested on: XF498
HCC 2998 = tested on: HCC 2998
SR = tested on: SR
SK-MEL-5 = tested on: SK-MEL-5
EKVX = tested on: EKVX
OVCAR-5 = tested on: OVCAR-5
HCT-15 = tested on: HCT-15
DMS-273 = tested on: DMS-273
786-0 = tested on: 786-0
DMS-114 = tested on: DMS-114
SF-295 = tested on: SF-295
OVCAR-3 = tested on: OVCAR-3
KM12 = tested on: KM12
CAKI-1 = tested on: CAKI-1
UACC-257 = tested on: UACC-257
HL-60 = tested on: HL-60
SF-268 = tested on: SF-268
ACHN = tested on: ACHN
HOP-62 = tested on: HOP-62
OVCAR-4 = tested on: OVCAR-4
NCI-H23 = tested on: NCI-H23
RPMI-8226 = tested on: RPMI-8226
LOX IMVI = tested on: LOX IMVI
SNB-75 = tested on: SNB-75
HOP-18 = tested on: HOP-18
SNB-78 = tested on: SNB-78
MOLT-4 = tested on: MOLT-4
TK-10 = tested on: TK-10
CCRF-CEM = tested on: CCRF-CEM
M14 = tested on: M14
SK-MEL-2 = tested on: SK-MEL-2
COLO 205 = tested on: COLO 205
HT-29 = tested on: HT-29
SF-539 = tested on: SF-539
NCI-H460 = tested on: NCI-H460
SK-MEL-28 = tested on: SK-MEL-28
K562 = tested on: K562
NCI-H226 = tested on: NCI-H226
M19-MEL = tested on: M19-MEL
NCI-H522 = tested on: NCI-H522
MDA-MB-435 = tested on: MDA-MB-435
NCI/ADR-RES = tested on: NCI/ADR-RES
U-251 = tested on: U-251
SK-OV-3 = tested on: SK-OV-3
A498 = tested on: A498
KM-20L2 = tested on: KM-20L2
IGROV-1 = tested on: IGROV-1
PC-3 = tested on: PC-3
DU-145 = tested on: DU-145
RXF 393 = tested on: RXF 393
MDA-MB-231 = tested on: MDA-MB-231
T47D = tested on: T47D
MDA-N = tested on: MDA-N
UACC-62 = tested on: UACC-62
Hs-578T = tested on: Hs-578T
BT-549 = tested on: BT-549
DLD-1 = tested on: DLD-1
HOP-92 = tested on: HOP-92
MCF7 = tested on: MCF7

`Cc1cc([N+](=O)[O-])c(C)c2c1[nH]c1ccc(/C(CCC3CCCC3)=N\N)cc12` was tested, and the GI50 (HCT-116) was 9.89 µM (inactive), the GI50 (A549) was 17.6 µM (inactive) and the GI50 (UO-31) was 15.3 µM (inactive). For the same compound, the GI50 (SN12C) was 14.8 µM (inactive), the GI50 (OVCAR-8) was 23.1 µM (inactive) and the GI50 (SNB-19) was 17.7 µM (inactive). The GI50 (SW-620) was 16.5 µM (inactive), the GI50 (Malme-3M) was 17.5 µM (inactive) and the GI50 (XF498) was 14.7 µM (inactive). The GI50 (HCC 2998) was 17 µM (inactive), the GI50 (SR) was 19.6 µM (inactive) and the GI50 (SK-MEL-5) was 18.2 µM (inactive). The GI50 (EKVX) was 17.4 µM (inactive), the GI50 (OVCAR-5) was > 10 µM (inactive) and the GI50 (HCT-15) was 14.2 µM. The GI50 (DMS-273) was 20.2 µM (inactive), the GI50 (786-0) was 14.7 µM (inactive) and the GI50 (DMS-114) was 17.6 µM (inactive). The GI50 (SF-295) was 18.8 µM (inactive), the GI50 (OVCAR-3) was 20 µM (inactive) and the GI50 (KM12) was 16 µM (inactive). The GI50 (CAKI-1) was > 10 µM (inactive), the GI50 (UACC-257) was 20 µM (inactive) and the GI50 (HL-60) was > 10 µM (inactive). For the same compound, the GI50 (SF-268) was 18.9 µM (inactive), the GI50 (ACHN) was 15.5 µM (inactive) and the GI50 (HOP-62) was 18.4 µM (inactive). The GI50 (OVCAR-4) was 27.4 µM (inactive), the GI50 (NCI-H23) was 14.7 µM (inactive) and the GI50 (RPMI-8226) was 20.3 µM (inactive). For the same compound, the GI50 (LOX IMVI) was 15.4 µM (inactive), the GI50 (SNB-75) was 22 µM (inactive) and the GI50 (HOP-18) was 11 µM (inactive). The GI50 (SNB-78) was 36.5 µM (inactive), the GI50 (MOLT-4) was 11.9 µM (inactive) and the GI50 (TK-10) was 14.2 µM (inactive). The GI50 (CCRF-CEM) was 10.4 µM (inactive), the GI50 (M14) was 17.6 µM (inactive) and the GI50 (SK-MEL-2) was 16.2 µM (inactive). For the same compound, the GI50 (COLO 205) was 17.5 µM (inactive), the GI50 (HT-29) was 24 µM (inactive) and the GI50 (SF-539) was 17.3 µM (inactive). For the same compound, the GI50 (NCI-H460) was 18 µM (inactive), the GI50 (SK-MEL-28) was 16.9 µM (inactive) and the GI50 (K562) was 10.3 µM (inactive). For the same compound, the GI50 (NCI-H226) was 20.8 µM (inactive), the GI50 (M19-MEL) was 19 µM (inactive) and the GI50 (NCI-H522) was 16.4 µM (inactive).
For `CCCC(=O)OC1C(C(O)CO)OC2OC(C)(C)OC21` (configuration not stated), the GI50 (MDA-MB-435) was > 100 µM (inactive), the GI50 (HCT-116) was > 100 µM (inactive) and the GI50 (A549) was > 100 µM (inactive). The GI50 (UO-31) was > 100 µM (inactive), the GI50 (SN12C) was > 100 µM (inactive) and the GI50 (OVCAR-8) was > 100 µM (inactive). For the same compound, the GI50 (SNB-19) was > 100 µM (inactive), the GI50 (NCI/ADR-RES) was > 100 µM (inactive) and the GI50 (U-251) was > 100 µM (inactive). The GI50 (SW-620) was > 100 µM (inactive), the GI50 (Malme-3M) was > 100 µM (inactive) and the GI50 (XF498) was > 100 µM (inactive). The GI50 (SK-OV-3) was > 100 µM (inactive), the GI50 (HCC 2998) was > 100 µM (inactive) and the GI50 (SR) was > 100 µM (inactive). For the same compound, the GI50 (SK-MEL-5) was > 100 µM (inactive), the GI50 (EKVX) was > 100 µM (inactive) and the GI50 (OVCAR-5) was > 100 µM (inactive). The GI50 (HCT-15) was greater than 100 µM, the GI50 (DMS-273) was > 100 µM (inactive) and the GI50 (786-0) was > 100 µM (inactive). For the same compound, the GI50 (A498) was > 100 µM (inactive), the GI50 (DMS-114) was > 100 µM (inactive) and the GI50 (SF-295) was > 100 µM (inactive). The GI50 (KM-20L2) was > 100 µM (inactive), the GI50 (IGROV-1) was > 100 µM (inactive) and the GI50 (OVCAR-3) was > 100 µM (inactive). The GI50 (KM12) was > 100 µM (inactive), the GI50 (CAKI-1) was > 100 µM (inactive) and the GI50 (PC-3) was > 100 µM (inactive). The GI50 (UACC-257) was > 100 µM (inactive), the GI50 (DU-145) was > 100 µM (inactive) and the GI50 (SF-268) was > 100 µM (inactive). The GI50 (ACHN) was > 100 µM (inactive), the GI50 (HOP-62) was > 100 µM (inactive) and the GI50 (RXF 393) was > 100 µM (inactive). The GI50 (MDA-MB-231) was > 100 µM (inactive), the GI50 (T47D) was > 100 µM (inactive) and the GI50 (OVCAR-4) was > 100 µM (inactive). The GI50 (NCI-H23) was > 100 µM (inactive), the GI50 (MDA-N) was > 100 µM (inactive) and the GI50 (RPMI-8226) was > 100 µM (inactive). For the same compound, the GI50 (UACC-62) was > 100 µM (inactive), the GI50 (LOX IMVI) was > 100 µM (inactive) and the GI50 (Hs-578T) was > 100 µM (inactive). The GI50 (SNB-75) was > 100 µM (inactive), the GI50 (HOP-18) was > 100 µM (inactive) and the GI50 (SNB-78) was > 100 µM (inactive). For the same compound, the GI50 (MOLT-4) was > 100 µM (inactive), the GI50 (TK-10) was > 100 µM (inactive) and the GI50 (M14) was > 100 µM (inactive). The GI50 (BT-549) was > 100 µM (inactive), the GI50 (SK-MEL-2) was > 100 µM (inactive) and the GI50 (DLD-1) was > 100 µM (inactive). For the same compound, the GI50 (COLO 205) was > 100 µM (inactive), the GI50 (HT-29) was > 100 µM (inactive) and the GI50 (HOP-92) was > 100 µM (inactive). For the same compound, the GI50 (SF-539) was > 100 µM (inactive), the GI50 (NCI-H460) was > 100 µM (inactive) and the GI50 (MCF7) was > 100 µM (inactive). The GI50 (SK-MEL-28) was > 100 µM (inactive), the GI50 (NCI-H226) was > 100 µM (inactive) and the GI50 (M19-MEL) was > 100 µM (inactive). The GI50 (NCI-H522) was > 100 µM (inactive).
